From ChEMBL document CHEMBL1201862, “PubChem BioAssay data set” (2004) come the findings set out here.

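Where inhibition never reached the appropriate level, the endpoint shown equals the highest concentration tested. Otherwise, values were interpolated linearly from a five-concentration, 48-hour dose response in 96-well plates. Here, GI50 denotes the concentration required for 50% inhibition of growth.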 Active and inactive are the calls of the source. No stated cut-off is given here; in the data, active = GI50 up to about 1.1 µM and inactive = higher.

Test in all cases: NCI tumour cell line growth inhibition, 48 h
Assay [1] deals with HT-29.
In assay [2] the test system is HOP-92.
In assay [3] the test system is LOX IMVI.
For assay [4], the system named is HCC 2998.
The test system of assay [5] is SK-MEL-28.
The subject of assay [6] is SW-620.
The test system of assay [7] is SF-268.
The subject of assay [8] is NCI/ADR-RES.
Assay [9] concerns EKVX.
Assay [10] has as its system HOP-62.
The test system of assay [11] is PC-3.
The subject of assay [12] is KM12.
Assay [13] deals with OVCAR-8.
Assay [14] has as its system NCI-H226.
Assay [15] deals with T47D.
Assay [16] deals with MDA-MB-231.
Assay [17] deals with UACC-62.
For assay [18], the system named is SNB-75.
Assay [19] deals with SF-539.

Regarding `O=c1[nH]c(=O)n(C2CC(O)C(COP(=O)(OCC(Cl)(Cl)Cl)OCC(Cl)(Cl)Cl)O2)cc1F` (stereo unspecified), the GI50 in [1] is 9.23 µM (inactive); in [2] it was 6.9 µM (inactive); in assay [3], > 35.1 µM (inactive); in assay [4], < 0.01 µM (active); in assay [5], > 28.6 µM (inactive); in [6], > 100 µM (inactive). Also, the GI50 was 1.24 µM (inactive) in assay [7]; 1.29 µM (inactive) in assay [8]; > 100 µM (inactive) in assay [9]; 0.115 µM (active) in assay [10]; 15.2 µM (inactive) in assay [11]; > 100 µM (inactive) in [12]. In addition, the GI50 is 0.556 µM (active) in assay [13]; 95.1 µM (inactive) in [14]; > 50.8 µM (inactive) in [15]; > 47 µM (inactive) in assay [16]; 0.396 µM (active) in assay [17]; 6.1 µM (inactive) in [18].

For the compound `C/C1=C/C2=CC(C)C[C@@H]2C(=O)[C@]2(C)C(=O)CC(C)(C)[C@H]2CC1=O` (stereo partly specified), the GI50 in [1], in assay [19], in assay [2], in assay [3], in assay [4] and in assay [6] was > 50 µM (inactive) in each case. The GI50 in [7], in assay [8], in assay [9], in assay [11], in assay [12] and in assay [13] was > 50 µM (inactive) throughout. The GI50 in assay [14], in assay [15], in assay [16], in [17] and in assay [18] was > 50 µM (inactive) in each case.

Consider `O=C(N/N=C\c1cccs1)c1ccncc1`, for which the GI50 in assay [1], in assay [19], in assay [2], in assay [4], in assay [5] and in assay [6] was > 100 µM (inactive) throughout. For the same compound, the GI50 in [7], in [8], in [9], in assay [10], in assay [11] and in assay [12] was > 100 µM (inactive) in each case. The GI50 in assay [13], in assay [14], in assay [15], in assay [16], in assay [17] and in assay [18] was > 100 µM (inactive) each time.

For the compound `COC(=O)c1sc2c(c1C(=O)OC)/C(=N/C(C)(C)C)S/C2=N\C(C)(C)C`, the GI50 was 16.4 µM (inactive) in assay [1]; 16.6 µM (inactive) in assay [19]; 18.7 µM (inactive) in assay [2]; 19.5 µM (inactive) in assay [3]; 14.8 µM (inactive) in assay [4]; 17.3 µM (inactive) in assay [5]. In addition, the GI50 in assay [6] is 17.9 µM (inactive); in assay [7] it was 19.1 µM (inactive); in assay [8] it was 19.8 µM (inactive); in [9], 16.3 µM (inactive); in assay [10], 19.6 µM (inactive); in [11], 19.1 µM (inactive). Further, the GI50 is 16.3 µM (inactive) in assay [12]; 19.5 µM (inactive) in assay [13]; 16.3 µM (inactive) in [14]; 12.2 µM (inactive) in assay [15]; 19.9 µM (inactive) in [16]; 17 µM (inactive) in assay [17].

As for `Clc1ccccc1-c1nc2cc(C34CC5CC(CC(C5)C3)C4)ccc2[nH]1`, the GI50 in assay [1] was 11.4 µM (inactive); in assay [2] it was 10.5 µM (inactive); in assay [3] it was 12.4 µM (inactive); in assay [4] it was 49.3 µM (inactive); in assay [5] it was 20.6 µM (inactive); in assay [6] it was 46 µM (inactive). Also, the GI50 in assay [7] is 41.1 µM (inactive); in [8], 28.1 µM (inactive); in [9], 29.1 µM (inactive); in assay [10], 14.3 µM (inactive); in assay [11], 15.1 µM (inactive); in [12], 53.2 µM (inactive). In addition, the GI50 in [13] is 10.9 µM (inactive); in assay [14] it was 25.4 µM (inactive); in assay [15], 10.9 µM (inactive); in [16] it was 15 µM (inactive); in assay [17] it was 13.9 µM (inactive); in [18], 5.71 µM (inactive).

As for `[O-][Cl+3]([O-])([O-])[O-].[O-][Cl+3]([O-])([O-])[O-].c1ccn2c(N3CCOCC3)[n+]3c4ccccc4[n+]4c(N5CCOCC5)n5ccccc5c4c3c2c1`, the GI50 in assay [19] was 65.3 µM (inactive); in assay [2], > 100 µM (inactive); in assay [3], > 100 µM (inactive); in assay [4], > 100 µM (inactive); in assay [5], > 100 µM (inactive); in assay [6], > 100 µM (inactive). In addition, the GI50 in assay [7] is 19 µM (inactive); in assay [8] it was > 100 µM (inactive); in [9] it was > 100 µM (inactive); in assay [11], > 100 µM (inactive); in assay [12], 52.1 µM (inactive); in [13], 41.2 µM (inactive). Also, the GI50 was 79.4 µM (inactive) in assay [14]; > 100 µM (inactive) in assay [15]; > 100 µM (inactive) in assay [16]; > 100 µM (inactive) in [17]; 28.5 µM (inactive) in assay [18].

As to `COC(=O)c1cc(Br)c(C(=O)C(Cl)(Cl)Cl)[nH]1`, the GI50 in assay [1], in assay [19], in assay [2], in assay [3], in assay [5] and in assay [6] was > 100 µM (inactive) in each case. In addition, the GI50 in assay [7], in [8], in assay [9], in assay [10], in [11] and in assay [12] was > 100 µM (inactive) in each case. In addition, the GI50 in assay [13], in assay [14], in [15], in assay [16], in [17] and in [18] was > 100 µM (inactive) throughout.

With `CC1=C(C(=S)Nc2ccc(Cl)c(C(=O)OC(C)C)c2)SCCO1`, the GI50 is 18.6 µM (inactive) in [1]; 18.7 µM (inactive) in [19]; 18.7 µM (inactive) in [2]; 15.5 µM (inactive) in assay [3]; 14.7 µM (inactive) in assay [4]; 17.9 µM (inactive) in assay [5]. Besides, the GI50 in assay [6] was 20.2 µM (inactive); in [7], 25.1 µM (inactive); in assay [8], 18.8 µM (inactive); in assay [9], 19.1 µM (inactive); in assay [11], 16.9 µM (inactive); in assay [12] it was 19.4 µM (inactive). The GI50 in [13] is 20 µM (inactive); in assay [14], 22.2 µM (inactive); in [15] it was 19.6 µM (inactive); in assay [16], 18.2 µM (inactive); in assay [17] it was 15.5 µM (inactive); in assay [18], 20.1 µM (inactive).

Consider `NC(=O)NCCSC1CCCCC1O` (stereo unspecified), for which the GI50 in assay [1], in [19], in assay [2], in assay [3], in assay [5] and in assay [6] was > 100 µM (inactive) throughout. The GI50 in assay [7], in assay [8], in assay [9], in assay [10], in assay [11] and in [12] was > 100 µM (inactive) throughout. Besides, the GI50 in assay [13], in assay [14], in assay [15], in assay [16], in [17] and in assay [18] was > 100 µM (inactive) each time.

`CN(C)c1ccc(/C=C(\NC(=O)c2ccccc2)C2NC(Cc3c[nH]c4ccccc34)C(=O)O2)cc1` (stereo unspecified): the GI50 in assay [1] is 3.25 µM (inactive); in assay [2], > 24.1 µM (inactive); in [3] it was > 24.8 µM (inactive); in [4], 6.12 µM (inactive); in assay [5], > 100 µM (inactive); in [6], 9.42 µM (inactive). In addition, the GI50 is 11.6 µM (inactive) in [7]; > 100 µM (inactive) in [8]; 8.99 µM (inactive) in assay [9]; 41.2 µM (inactive) in assay [10]; 27.4 µM (inactive) in [11]; 6.71 µM (inactive) in assay [12]. Also, the GI50 is 5.98 µM (inactive) in assay [13]; > 100 µM (inactive) in assay [14]; > 54 µM (inactive) in assay [15]; > 50.4 µM (inactive) in assay [16]; > 82.6 µM (inactive) in [17]; 39.4 µM (inactive) in assay [18].

In the case of `Fc1ccc(C(OCCN2CCN(CCCCl)CC2)c2ccc(F)cc2)cc1`, the GI50 in assay [1] was 17 µM (inactive); in [19], 18.7 µM (inactive); in [2], 12.5 µM (inactive); in assay [3] it was 16.8 µM (inactive); in assay [4], 18.5 µM (inactive); in [5], 38.4 µM (inactive). The GI50 in assay [6] is 32.2 µM (inactive); in [7], 24.5 µM (inactive); in assay [8], 24.7 µM (inactive); in [9], 41.1 µM (inactive); in assay [10], 33 µM (inactive); in assay [11], 34.8 µM (inactive). In addition, the GI50 in [12] is 18.3 µM (inactive); in [13], 27.5 µM (inactive); in [14] it was 20.5 µM (inactive); in assay [15], 22.3 µM (inactive); in [16] it was 26.5 µM (inactive); in assay [17] it was 19.1 µM (inactive).
